Source: patent US20240382537A1, “Genetically Modified Mycoplasma Bacteria Active Against Heterogenous Bacterial Biofilms” (priority 2021, published 2024)

How the values were obtained:
P. aeruginosa biofilm = assay: In vitro P. aeruginosa biofilm degradation assay (crystal violet); type: cell-based, Pseudomonas aeruginosa; conditions: for effect of the minimal killing concentration when cells are organized in a biofilm: antibiotic alone, P. aeruginosa clinical isolates
Protocol: In Vitro P. aeruginosa Biofilm Degradation Assay
M. pneumoniae spp. was grown in a T25 flask for three days with 5 ml of Hayflick media without antibiotics, and then the conditioned supernatant was filtered with 0.33 μm sterile syringe filters. P. aeruginosa strains were grown overnight in Erlenmeyer flasks (20 μl stock in 20 ml TSB) at 37° C. on shaking 600 rpm, and then diluted to an OD600 of 0.15 in TSB. Diluted Pseudomonas culture (100 μl) was then added in triplicates to sterile 96-well polystyrene microtiter plates. Cells were incubated statically overnight at 25°° C. to allow for biofilm formation. Biofilms were washed with PBS the following day to remove non-adherent cells and TSB media. Treatment of 50-100 µl of M. pneumoniae-conditioned filtered medium were added to the wells (using at least triplicates), and plates were incubated at 37° C. for 4 h. After incubation, wells were washed with PBS, stained with 150 μl of 0.1% (w/v) crystal violet for 10 min and washed three times with PBS. The dye was solubilized by addition of 100 μl of 95% (v/v) ethanol and incubated for 10 min. Absorbance was measured at 595 nm using a TECAN plate reader.

P. aeruginosa cells = assay: Effect of antibiotic concentrations on growth of P. aeruginosa isolates in suspension; type: cell-based, Pseudomonas aeruginosa; conditions: clinical isolates SAT290 and C117, suspension
Text: (§1) We studied a possible increase of the biofilm dispersal activity of CV8_HA strain, that expresses dispersal agents against P. aeruginosa, when combined with antibiotics. We used two different clinical isolates of P. aeruginosa (SAT290 and C117) and two different standard of care antibiotics (Ceftazidime-Avibactam and Piperacillin-Tazobactam). First, we studied the effect of different concentrations of these antibiotics on the growth of P. aeruginosa isolates and M. pneumoniae. […] Therefore, we studied the degradation of the biofilm of the P. aeruginosa clinical isolates when exposed to the supernatant of CV8_HA strains with or without these antibiotics (FIG. 8).

M. pneumoniae = assay: Effect of antibiotics on growth of M. pneumoniae; type: cell-based, Mycoplasma pneumoniae
Text: as §1

Question: Ceftazidime-Avibactam was tested. Which “effect of the minimal killing concentration when cells are organized in a biofilm” value (P. aeruginosa biofilm) did it give?
Answer: has no effect

Question: What about the “antibiotic activity on biofilm when combined with CV8_HA supernatant” value (P. aeruginosa biofilm; clinical isolate SAT290 (FIG. 8A)) of the same substance?
Answer: becomes active on the biofilm

Question: What about the “minimal concentration that kills P. aeruginosa cells when grown in suspension” value (P. aeruginosa cells) of the same substance?
Answer: > 15 µg/mL

Question: What about the “susceptibility of M. pneumoniae to the antibiotic” value (M. pneumoniae) of the same substance?
Answer: naturally resistant

Question: With Piperacillin-Tazobactam as the substance, how does the “effect of the minimal killing concentration when cells are organized in a biofilm” value (P. aeruginosa biofilm) read?
Answer: has no effect

Question: What about the “minimal concentration that kills P. aeruginosa cells when grown in suspension” value (P. aeruginosa cells) of the same substance?
Answer: > 5 µg/mL

Question: What about the “susceptibility of M. pneumoniae to the antibiotic” value (M. pneumoniae) of the same substance?
Answer: naturally resistant
